Assay results published in paper PMC5218480 (PLoS ONE, 2017).

Tested on: MV-4-11 cells
Assay: Gene expression microarray analysis (Affymetrix PrimeView) and GSEA
Type: cell-based, human
Design: RFU PODN (11730768_x_at) / Fold change /veh PODN (11730768_x_at) / RFU LINC00158 (11744669_a_at) / Fold change /veh LINC00158 (11744669_a_at) / RFU DUSP10 (11751237_a_at) / Fold change /veh DUSP10 (11751237_a_at) / RFU ID3 (11757404_x_at) / Fold change /veh ID3 (11757404_x_at) / RFU PLEKHG5 (11737974_s_at) / Fold change /veh PLEKHG5 (11737974_s_at) / RFU LRRC4B (11730491_at) / Fold change /veh LRRC4B (11730491_at) / RFU GIMAP4 (11747438_a_at) / Fold change /veh GIMAP4 (11747438_a_at) / RFU KRT8 (11758183_x_at) / Fold change /veh KRT8 (11758183_x_at) / RFU CNN1 (11734310_a_at) / Fold change /veh CNN1 (11734310_a_at) / RFU VPS37D (11726825_at) / Fold change /veh VPS37D (11726825_at) / RFU C10orf10 (11716522_x_at) / Fold change /veh C10orf10 (11716522_x_at) / RFU KIR2DL2 /// KIR2DL4 /// KIR2DL5A /// KIR2DL5B /// KIR2DS1 /// KIR2DS2 /// KIR2DS3 /// KIR2DS4 /// KIR3DL3 /// KIR3DL3 /// KIR3DS1 (11738374_at) / Fold change /veh KIR2DL2 /// KIR2DL4 /// KIR2DL5A /// KIR2DL5B /// KIR2DS1 /// KIR2DS2 /// KIR2DS3 /// KIR2DS4 /// KIR3DL3 /// KIR3DL3 /// KIR3DS1 (11738374_at) / RFU C1QL1 (11718748_at) / Fold change /veh C1QL1 (11718748_at) / RFU TMPRSS4 (11747572_a_at) / Fold change /veh TMPRSS4 (11747572_a_at) / RFU HAMP (11756126_x_at) / Fold change /veh HAMP (11756126_x_at) / RFU RNFT2 (11725882_a_at) / Fold change /veh RNFT2 (11725882_a_at) / RFU NR4A2 (11747474_a_at) / Fold change /veh NR4A2 (11747474_a_at) / RFU ABCC12 (11746883_a_at) / Fold change /veh ABCC12 (11746883_a_at) / RFU TMEM136 (11760407_x_at) / Fold change /veh TMEM136 (11760407_x_at) / RFU CLDN22 /// WWC2 (11732394_at) / Fold change /veh CLDN22 /// WWC2 (11732394_at) / RFU HLA-DPB1 (11760878_x_at) / Fold change /veh HLA-DPB1 (11760878_x_at) / RFU SPINT1 (11716480_a_at) / Fold change /veh SPINT1 (11716480_a_at) / RFU GAP43 (11754022_s_at) / Fold change /veh GAP43 (11754022_s_at) / RFU A4GNT (11735810_at) / Fold change /veh A4GNT (11735810_at) / RFU PRB3 (11715151_x_at) / Fold change /veh PRB3 (11715151_x_at) / RFU TUBB4B (11761932_at) / Fold change /veh TUBB4B (11761932_at) / RFU CAPN14 (11732068_a_at) / Fold change /veh CAPN14 (11732068_a_at) / RFU TMCC2 (11721928_a_at) / Fold change /veh TMCC2 (11721928_a_at) / RFU IRGQ (11745062_a_at) / Fold change /veh IRGQ (11745062_a_at) / RFU FAM174B (11720279_a_at) / Fold change /veh FAM174B (11720279_a_at) / RFU TMPRSS4 (11748680_a_at) / Fold change /veh TMPRSS4 (11748680_a_at) / RFU FAM212B (11763350_a_at) / Fold change /veh FAM212B (11763350_a_at) / RFU PLEKHG5 (11743358_a_at) / Fold change /veh PLEKHG5 (11743358_a_at) / RFU ZSCAN30 (11745921_a_at) / Fold change /veh ZSCAN30 (11745921_a_at) / RFU CMKLR1 (11741424_a_at) / Fold change /veh CMKLR1 (11741424_a_at) / RFU LOC101060620 /// MAPK8IP1 (11723275_at) / Fold change /veh LOC101060620 /// MAPK8IP1 (11723275_at) / RFU SPTSSB (11747773_x_at) / Fold change /veh SPTSSB (11747773_x_at) / RFU PRSS12 (11739890_at) / Fold change /veh PRSS12 (11739890_at) / RFU BIN1 (11741810_x_at) / Fold change /veh BIN1 (11741810_x_at) / RFU WNT11 (11732464_a_at) / Fold change /veh WNT11 (11732464_a_at) / RFU C10orf10 (11716521_a_at) / Fold change /veh C10orf10 (11716521_a_at) / RFU C5orf56 (11738089_at) / Fold change /veh C5orf56 (11738089_at) / RFU CYB561 (11721691_x_at) / Fold change /veh CYB561 (11721691_x_at) / RFU ANKRD19P (11752326_a_at) / Fold change /veh ANKRD19P (11752326_a_at) / RFU OR2T12 /// OR2T33 /// OR2T8 (11738714_s_at) / Fold change /veh OR2T12 /// OR2T33 /// OR2T8 (11738714_s_at) / RFU VCAN (11748164_a_at) / Fold change /veh VCAN (11748164_a_at) / RFU JSRP1 (11732532_at) / Fold change /veh JSRP1 (11732532_at) / RFU KRTAP10-11 (11738290_x_at) / Fold change /veh KRTAP10-11 (11738290_x_at) / RFU MYO3A (11730013_a_at) / Fold change /veh MYO3A (11730013_a_at) / RFU EBF3 (11725865_a_at) / Fold change /veh EBF3 (11725865_a_at) / RFU CAMK2N1 (11719241_x_at) / Fold change /veh CAMK2N1 (11719241_x_at) / RFU C5orf56 (11738088_a_at) / Fold change /veh C5orf56 (11738088_a_at) / RFU OLFML3 (11715873_a_at) / Fold change /veh OLFML3 (11715873_a_at) / RFU LOC100653217 /// NTM (11731650_a_at) / Fold change /veh LOC100653217 /// NTM (11731650_a_at) / RFU MAPK11 (11762145_a_at) / Fold change /veh MAPK11 (11762145_a_at) / RFU FIZ1 (11724087_x_at) / Fold change /veh FIZ1 (11724087_x_at) / RFU OASL (11726364_x_at) / Fold change /veh OASL (11726364_x_at) / RFU SOX15 (11748057_x_at) / Fold change /veh SOX15 (11748057_x_at) / RFU CD79A (11719716_a_at) / Fold change /veh CD79A (11719716_a_at) / RFU HIST1H1D (11736915_at) / Fold change /veh HIST1H1D (11736915_at) / RFU CASKIN2 (11723855_a_at) / Fold change /veh CASKIN2 (11723855_a_at) / RFU LOC730098 (11760151_x_at) / Fold change /veh LOC730098 (11760151_x_at) / RFU OR4N2 (11742367_at) / Fold change /veh OR4N2 (11742367_at) / RFU PRRT2 (11749266_a_at) / Fold change /veh PRRT2 (11749266_a_at) / RFU SNX32 (11753110_a_at) / Fold change /veh SNX32 (11753110_a_at) / RFU CDHR5 (11726645_a_at) / Fold change /veh CDHR5 (11726645_a_at) / RFU RCAN1 (11760418_a_at) / Fold change /veh RCAN1 (11760418_a_at) / RFU FAM167A (11723789_a_at) / Fold change /veh FAM167A (11723789_a_at) / RFU FAM26E (11764081_at) / Fold change /veh FAM26E (11764081_at) / RFU ISYNA1 (11749810_s_at) / Fold change /veh ISYNA1 (11749810_s_at) / RFU ACY1 (11761880_at) / Fold change /veh ACY1 (11761880_at) / RFU 11764098_at / Fold change /veh 11764098_at / RFU SAMD14 (11745864_x_at) / Fold change /veh SAMD14 (11745864_x_at) / RFU NPB (11741838_a_at) / Fold change /veh NPB (11741838_a_at) / RFU TMPRSS6 (11731388_a_at) / Fold change /veh TMPRSS6 (11731388_a_at) / RFU KRTAP10-2 (11738614_at) / Fold change /veh KRTAP10-2 (11738614_at) / RFU ARHGAP8 /// PRR5-ARHGAP8 (11727945_x_at) / Fold change /veh ARHGAP8 /// PRR5-ARHGAP8 (11727945_x_at) / RFU KRTAP5-7 /// NADSYN1 (11734609_at) / Fold change /veh KRTAP5-7 /// NADSYN1 (11734609_at) / RFU RASL12 (11751679_a_at) / Fold change /veh RASL12 (11751679_a_at) / RFU CDKN2B (11736163_a_at) / Fold change /veh CDKN2B (11736163_a_at) / RFU PRF1 (11729649_at) / Fold change /veh PRF1 (11729649_at) / RFU, ZNF638 /// ZNF638-IT1 / Fold change vs veh, ZNF638 /// ZNF638-IT1 / RFU, PANK3 / Fold change vs veh, PANK3 / RFU, SH3YL1 / Fold change vs veh, SH3YL1 / RFU, ZEB2 / Fold change vs veh, ZEB2 / RFU, NRIP1 / Fold change vs veh, NRIP1 / RFU, PTTG1IP / Fold change vs veh, PTTG1IP / RFU, CAPN2 / Fold change vs veh, CAPN2 / RFU, MED14 / Fold change vs veh, MED14 / RFU, SNORA58 / Fold change vs veh, SNORA58 / RFU, C1orf63 / Fold change vs veh, C1orf63 / RFU, LRRFIP1 / Fold change vs veh, LRRFIP1 / RFU, NDUFAF7 / Fold change vs veh, NDUFAF7 / RFU, SLC12A2 / Fold change vs veh, SLC12A2 / RFU, IBTK / Fold change vs veh, IBTK / RFU, ESF1 / Fold change vs veh, ESF1 / Fold change vs veh, TMEM50B / RFU, TAOK1 / Fold change vs veh, TAOK1 / RFU, ACBD3 / Fold change vs veh, ACBD3 / RFU, TMA16 / Fold change vs veh, TMA16 / RFU, RWDD3 / Fold change vs veh, RWDD3 / RFU, BCAT1 / Fold change vs veh, BCAT1 / RFU, EDEM3 / Fold change vs veh, EDEM3 / RFU, TMEM33 / Fold change vs veh, TMEM33 / RFU, WDR75 / Fold change vs veh, WDR75 / RFU, AHCTF1 / Fold change vs veh, AHCTF1 / RFU, TFRC / Fold change vs veh, TFRC / RFU, ZDHHC17 / Fold change vs veh, ZDHHC17 / RFU, NOM1 / Fold change vs veh, NOM1 / RFU, ARL8B / Fold change vs veh, ARL8B / RFU, ZBTB11 / Fold change vs veh, ZBTB11 / RFU, TAMM41 / Fold change vs veh, TAMM41 / RFU, KIAA1704 /// LOC100996395 / Fold change vs veh, KIAA1704 /// LOC100996395 / RFU, ING1 / Fold change vs veh, ING1 / RFU, TRMT61B / Fold change vs veh, TRMT61B / RFU, FUBP3 / Fold change vs veh, FUBP3 / RFU, TP53 / Fold change vs veh, TP53 / RFU, TNKS2 / Fold change vs veh, TNKS2 / RFU, ZFP14 / Fold change vs veh, ZFP14 / RFU, ACTR2 / Fold change vs veh, ACTR2 / RFU, PPP3R1 / Fold change vs veh, PPP3R1 / RFU, PIK3R1 / Fold change vs veh, PIK3R1 / RFU, HNRNPA1 / Fold change vs veh, HNRNPA1 / RFU, RNF170 / Fold change vs veh, RNF170 / RFU, ZNF28 / Fold change vs veh, ZNF28 / RFU, RNGTT / Fold change vs veh, RNGTT / RFU, OGT / Fold change vs veh, OGT / RFU, BRD1 / Fold change vs veh, BRD1 / RFU, MARS / Fold change vs veh, MARS / RFU, ZNF655 / Fold change vs veh, ZNF655 / RFU, FAHD1 / Fold change vs veh, FAHD1 / RFU, BDP1 / Fold change vs veh, BDP1 / RFU, LRRCC1 / Fold change vs veh, LRRCC1 / RFU, ARID1A / Fold change vs veh, ARID1A / RFU, ZNF146 / Fold change vs veh, ZNF146 / RFU, ZNF330 / Fold change vs veh, ZNF330 / RFU, GPN3 / Fold change vs veh, GPN3 / RFU, C9orf123 / Fold change vs veh, C9orf123 / RFU, N4BP2L2 / Fold change vs veh, N4BP2L2 / RFU, ARFIP1 / Fold change vs veh, ARFIP1 / RFU, FAM179B / Fold change vs veh, FAM179B / RFU, BCL10 / Fold change vs veh, BCL10 / RFU, UHRF1BP1L / Fold change vs veh, UHRF1BP1L / RFU, BET1 / Fold change vs veh, BET1 / RFU, CNOT2 / Fold change vs veh, CNOT2 / RFU, ZNF268 / Fold change vs veh, ZNF268 / Fold change vs veh, ZNF507 / RFU, DGCR2 / Fold change vs veh, DGCR2 / RFU, WDSUB1 / Fold change vs veh, WDSUB1 / Fold change vs veh, HSP90B1 /// MIR3652 / RFU, ADSS / Fold change vs veh, ADSS / RFU, GK / Fold change vs veh, GK / RFU, ZNF148 / Fold change vs veh, ZNF148 / RFU, TAF9 / Fold change vs veh, TAF9 / RFU, SLC1A5 / Fold change vs veh, SLC1A5 / RFU, SLMO2 / Fold change vs veh, SLMO2 / RFU, ABCC4 / Fold change vs veh, ABCC4 / RFU, LOC101060439 /// RAP1B / Fold change vs veh, LOC101060439 /// RAP1B / RFU, RFX7 / Fold change vs veh, RFX7 / RFU, GTPBP10 / Fold change vs veh, GTPBP10 / RFU, CNEP1R1 / Fold change vs veh, CNEP1R1 / RFU, BIVM-ERCC5 /// ERCC5 / Fold change vs veh, BIVM-ERCC5 /// ERCC5 / RFU, ILF3 / Fold change vs veh, ILF3 / RFU 11762660_at / Fold change /veh 11762660_at / RFU VCAN (11757783_s_at) / Fold change /veh VCAN (11757783_s_at) / RFU DDX43 (11728927_at) / Fold change /veh DDX43 (11728927_at) / RFU KRT8 (11758188_x_at) / Fold change /veh KRT8 (11758188_x_at) / RFU NKD1 (11759106_at) / Fold change /veh NKD1 (11759106_at) / RFU SRD5A1 (11742802_a_at) / Fold change /veh SRD5A1 (11742802_a_at) / RFU TPSAB1 /// TPSB2 (11721975_s_at) / Fold change /veh TPSAB1 /// TPSB2 (11721975_s_at) / RFU GSTM3 (11746129_a_at) / Fold change /veh GSTM3 (11746129_a_at) / RFU IL23R (11737362_x_at) / Fold change /veh IL23R (11737362_x_at) / RFU TMEM51 (11727254_a_at) / Fold change /veh TMEM51 (11727254_a_at) / RFU PIWIL2 (11732686_x_at) / Fold change /veh PIWIL2 (11732686_x_at) / RFU ORM1 (11744905_x_at) / Fold change /veh ORM1 (11744905_x_at) / RFU CCDC152 (11743942_at) / Fold change /veh CCDC152 (11743942_at) / RFU ECM1 (11717891_a_at) / Fold change /veh ECM1 (11717891_a_at) / RFU IL23R (11748794_a_at) / Fold change /veh IL23R (11748794_a_at) / RFU TNFAIP8L3 (11732012_x_at) / Fold change /veh TNFAIP8L3 (11732012_x_at) / RFU MBOAT4 (11741988_at) / Fold change /veh MBOAT4 (11741988_at) / RFU 11764193_at / Fold change /veh 11764193_at / RFU TMEM53 (11763286_at) / Fold change /veh TMEM53 (11763286_at) / RFU MAGEB2 (11727129_at) / Fold change /veh MAGEB2 (11727129_at) / RFU TMEM200A (11744735_a_at) / Fold change /veh TMEM200A (11744735_a_at) / RFU CCDC152 (11751479_a_at) / Fold change /veh CCDC152 (11751479_a_at) / RFU FAM211A (11726209_a_at) / Fold change /veh FAM211A (11726209_a_at) / RFU RGS16 (11746705_a_at) / Fold change /veh RGS16 (11746705_a_at) / RFU VCAN (11755009_s_at) / Fold change /veh VCAN (11755009_s_at) / RFU RHOB (11743442_s_at) / Fold change /veh RHOB (11743442_s_at) / RFU RGS16 (11720943_a_at) / Fold change /veh RGS16 (11720943_a_at) / RFU RGS16 (11720944_at) / Fold change /veh RGS16 (11720944_at) / RFU, VPS4B / Fold change vs veh, VPS4B / RFU, CREB1 / Fold change vs veh, CREB1 / RFU, DNAJC13 / Fold change vs veh, DNAJC13 / RFU, GNAQ / Fold change vs veh, GNAQ / RFU, CDK5R1 / Fold change vs veh, CDK5R1 / RFU, ZRANB3 / Fold change vs veh, ZRANB3 / RFU, CUL4A / Fold change vs veh, CUL4A / RFU, CCNY / Fold change vs veh, CCNY / RFU, UFL1 / Fold change vs veh, UFL1 / RFU, COG3 / Fold change vs veh, COG3 / RFU, DIAPH2 / Fold change vs veh, DIAPH2 / RFU, SKA2 / Fold change vs veh, SKA2 / RFU, AFF3 / Fold change vs veh, AFF3 / RFU, LMF1 / Fold change vs veh, LMF1 / RFU, IPO11 / Fold change vs veh, IPO11 / RFU, DFFB / Fold change vs veh, DFFB / RFU, FOXP1 / Fold change vs veh, FOXP1 / RFU, CARD8 / Fold change vs veh, CARD8 / RFU, STRN3 / Fold change vs veh, STRN3 / RFU, ADK / Fold change vs veh, ADK / RFU, RASSF2 / Fold change vs veh, RASSF2 / RFU, WIPF1 / Fold change vs veh, WIPF1 / RFU, LARP1B / Fold change vs veh, LARP1B / RFU, RASA1 / Fold change vs veh, RASA1 / RFU, RB1 / Fold change vs veh, RB1 / RFU, PPFIA1 / Fold change vs veh, PPFIA1 / RFU, MAT2A / Fold change vs veh, MAT2A / RFU, CCT5 / Fold change vs veh, CCT5 / RFU, WDR92 / Fold change vs veh, WDR92 / RFU, CUX1 / Fold change vs veh, CUX1 / RFU, TTC7A / Fold change vs veh, TTC7A / RFU, TMEM135 / Fold change vs veh, TMEM135 / RFU, DEPTOR / Fold change vs veh, DEPTOR / RFU, CPM / Fold change vs veh, CPM / RFU, DNAJB6 / Fold change vs veh, DNAJB6 / RFU, CACNA2D3 / Fold change vs veh, CACNA2D3 / RFU, DTX4 / Fold change vs veh, DTX4 / RFU, TFCP2 / Fold change vs veh, TFCP2 / RFU, GMCL1 /// GMCL1P1 / Fold change vs veh, GMCL1 /// GMCL1P1 / RFU, AEBP2 / Fold change vs veh, AEBP2 / RFU, SNHG1 /// SNORD22 /// SNORD25 /// SNORD26 /// SNORD27 /// SNORD28 /// SNORD29 /// SNORD31 / Fold change vs veh, SNHG1 /// SNORD22 /// SNORD25 /// SNORD26 /// SNORD27 /// SNORD28 /// SNORD29 /// SNORD31 / Fold change (Aza/veh), C12orf56 (ProbeSet 11735607_a_at) / Fold change (ACY-1035/veh), C12orf56 (ProbeSet 11735607_a_at) / Fold change (Aza/veh), FGFR1OP (ProbeSet 11751329_s_at) / Fold change (ACY-1035/veh), FGFR1OP (ProbeSet 11751329_s_at) / Fold change (Aza/veh), VPS36 (ProbeSet 11739960_a_at) / Fold change (ACY-1035/veh), VPS36 (ProbeSet 11739960_a_at) / RFU SYPL1 (11715823_x_at) / Fold change /veh SYPL1 (11715823_x_at) / RFU IGFBP7 (11715501_s_at) / Fold change /veh IGFBP7 (11715501_s_at) / RFU REEP3 (11722064_at) / Fold change /veh REEP3 (11722064_at) / RFU IGLL1 (11728026_x_at) / Fold change /veh IGLL1 (11728026_x_at): dose or concentration left out as unconfirmed
Details: ProbeSet 11750457_a_at; LIST B

## Nc1ccc(-c2cccs2)cc1NC(=O)c1ccc2c(c1)cc(C1CC1)n2CCN1CCOCC1 [ACY-1035]
  RFU, GTPBP10: 30.83 RFU
